The test system of experiment [1] is CCRF-CEM. In words: Cytotoxicity against human CCRF-CEM cells assessed as cell growth inhibition at 10^-5 M. The format is functional, cell-based.
The subject of experiment [2] is HOP-92. In words: Cytotoxicity against human HOP92 cells assessed as cell growth inhibition at 10^-5 M. The format is functional, cell-based.
Experiment [3] relates to HCC 2998. In words: Cytotoxicity against human HCC2998 cells assessed as cell growth inhibition at 10^-5 M. The format is functional, cell-based.
The subject of experiment [4] is Micrococcus luteus. In words: Antibacterial against Micrococcus luteus ATCC 9341 after 24 hrs by NCCLS M7-A6 method. The format is functional. The following applies: Micrococcus luteus, ATCC 9341, 24 h; read-out: MIC.
Experiment [5] deals with Bacillus subtilis. In words: Antibacterial against Bacillus subtilis ATCC 6633 after 24 hrs by NCCLS M7-A6 method. To be noted: Bacillus subtilis, ATCC 6633, 24 h; read-out: MIC. Format: functional.
Experiment [6] concerns Bacillus cereus. In words: Antibacterial against Bacillus cereus ATCC 11778 after 24 hrs by NCCLS M7-A6 method. Format: functional. The following applies: Bacillus cereus, ATCC 11778, 24 h; read-out: MIC.
For experiment [7], the system named is Staphylococcus aureus. In words: Antibacterial against Staphylococcus aureus ATCC 6538 after 24 hrs by NCCLS M7-A6 method. To be noted: ATCC 6538, 24 h. Format: functional.
Experiment [8] relates to Staphylococcus aureus. In words: Antibacterial against Staphylococcus aureus ATCC 6538P after 24 hrs by NCCLS M7-A6 method. Format: functional.
For experiment [9], the system named is Escherichia coli. In words: Antibacterial against Escherichia coli ATCC 10536 after 24 hrs by NCCLS M7-A6 method. Format: functional. The following applies: ATCC 10536, 24 h.
For experiment [10], the system named is 786-0. In words: Cytotoxicity against human 786-0 cells assessed as cell growth inhibition at 10^-5 M. Format: functional, cell-based.
Experiment [11] deals with Cancer cell lines. In words: Cytotoxicity against human lung cancer cells assessed as cell growth inhibition at 10^-5 M. Format: functional, cell-based.
Experiment [12] deals with Leukemia cell. In words: Cytotoxicity against human leukemia cells assessed as cell growth inhibition at 10^-5 M. Format: functional, cell-based.
Experiment [13] relates to Cancer cell lines. In words: Cytotoxicity against human colon cancer cells assessed as cell growth inhibition at 10^-5 M. Format: functional, cell-based.
Experiment [14] has as its system Cancer cell lines. In words: Cytotoxicity against human CNS cancer cells assessed as cell growth inhibition at 10^-5 M. Format: functional, cell-based.
The subject of experiment [15] is Melanoma cell. In words: Cytotoxicity against human melanoma cells assessed as cell growth inhibition at 10^-5 M. The format is functional, cell-based.
For experiment [16], the system named is Cancer cell lines. In words: Cytotoxicity against human ovarian cancer cells assessed as cell growth inhibition at 10^-5 M. Format: functional, cell-based.
Experiment [17] deals with Cancer cell lines. In words: Cytotoxicity against human renal cancer cells assessed as cell growth inhibition at 10^-5 M. The format is functional, cell-based.
Experiment [18] relates to Cancer cell lines. In words: Cytotoxicity against human prostate cancer cells assessed as cell growth inhibition at 10^-5 M. The format is functional, cell-based.
Experiment [19] deals with Cancer cell lines. In words: Cytotoxicity against human breast cancer cells assessed as cell growth inhibition at 10^-5 M. The format is functional, cell-based.

Molecules are shown by their SMILES. Values after ≈ are worked out from the molar mass of the structure shown. Active and inactive are the calls of the source. The calls are words filed in the database; no cut-off is given here.

The record followed here is ChEMBL document CHEMBL1781990, “Synthesis and pharmacological activity of O-aminoalkyl derivatives of 7-hydroxycoumarin” (2011).

Broadly, the MIC is the least concentration at which growth counts as inhibited. Turning to `CC(=O)c1cc2c(C)cc(=O)oc2cc1OCCN1CCOCC1`, the “growth inhibition (GI)” value in experiment [1], in experiment [2] and in experiment [3] was “Active” in each case. Further, the MIC in experiment [4], in [5], in experiment [6], in experiment [7], in experiment [8] and in experiment [9] was 30.2 mM (≈ 10 mg/mL) each time.
With `Cc1cc(=O)oc2cc(OCCN(C(C)C)C(C)C)ccc12`, the “growth inhibition (GI)” value in experiment [10], in experiment [11], in [12], in experiment [13], in [14] and in [15] was “inactive” in each case. The “growth inhibition (GI)” value in experiment [16], in experiment [17], in experiment [18] and in experiment [19] was “inactive” throughout. For the same compound, the MIC in experiment [4] was determined as 7.4 mM (≈ 2.25 mg/mL); in experiment [5], 2.9 mM (≈ 0.88 mg/mL); in experiment [6], 2.9 mM (≈ 0.88 mg/mL); in [7], 44.1 mM (≈ 13.4 mg/mL); in [8] it was 44.1 mM (≈ 13.4 mg/mL); in experiment [9], 14.7 mM (≈ 4.46 mg/mL).
